Laboratory results taken from US20250248979A1, “NOVEL GPX4 INHIBITORS AND USES THEREOF” (THE TRUSTEES OF COLUMBIA UNIVERSITY IN THE CITY OF NEW YORK, priority 2022, published 2025).
Where two headings read alike, the source gives them in different places.

How the values were obtained:
[1] = molecular target: T1, GPX4 (Homo sapiens, UniProt P36969); assay: GPX4 activity assay in cell lysates (NADPH-coupled); assay type: biochemical; set-up: endogenous in cells; host or cells: A-673 cell lysate
T1 sequence (P36969 1-170 isoform P36969-2): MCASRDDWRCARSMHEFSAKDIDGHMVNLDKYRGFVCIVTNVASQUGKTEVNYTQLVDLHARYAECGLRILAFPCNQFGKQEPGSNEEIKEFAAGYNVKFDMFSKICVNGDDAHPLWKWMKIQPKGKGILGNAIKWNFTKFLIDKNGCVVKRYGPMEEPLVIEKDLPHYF
How it was run: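 Native GPX4 in lysates of A-673 cells grown with 20 nM sodium selenite; lysate preincubated with compound 45 min at 37 °C in pH 8.0 buffer with 3 mM GSH, 0.5 mM NADPH and glutathione reductase. Reaction started with phosphatidylcholine hydroperoxide; NADPH consumption followed at 340 nm over 25 min; triplicates.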

[2] = test system: HT-1080 cells; assay: Cellular dose response assay, HT-1080 with and without Fer-1; assay type: cell-based, human; conditions: for Selectivity: ferroptosis selectivity; for ferroptosis induction / potency in HT-1080 cells, result in words: RSL3 as control
Text: HT-1080 (human [Homo sapiens] […] fibrosarcoma), A-673 (human [Homo sapiens] […] Ewing's sarcoma), and SK-HEP-1 (human [Homo sapiens] […] hepatic adenocarcinoma), cells were obtained from ATCC. Huh7 (human [Homo sapiens] […] hepatocellular carcinoma), HLF (human [Homo sapiens] […] hepatocellular carcinoma), HepG2 (human [Homo sapiens] […] hepatocellular carcinoma), cells were obtained from the Cancer Cell Bank at Columbia University Irving Medical Center. HT-1080, A-673, Huh-7, and HLF cells were grown in Dulbecco's Modified Eagle Medium (DMEM) supplemented with 10% heat inactivated fetal bovine serum (HI-FBS), 1% non-essential amino acids, and 1% penicillin streptomycin. HepG2 and SK-HEP-1 cells were grown in Eagle's Minimum Essential Medium (EMEM) supplemented with 10% HI-FBS, and 1% penicillin-streptomycin. All cells were cultured at 37° C. and 5% CO2.
HT-1080, HepG2, Huh7, HLF, and SK-HEP-1 cells were seeded into opaque white 384-well plates at 1500 cells per well then incubated at 37° C. with 5% CO2 overnight. The next day, compounds of interest were dissolved in DMSO and 12-point 2-fold dilution series were prepared with and without Fer-1. Cells were treated in triplicate (final DMSO concentration of 0.4% in all wells, including DMSO-only control wells) and incubated for a further 48 hours at 37° C. and 5% CO2. Cell viability was evaluated using CellTiter-Glo (Promega G7573) and luminescence was recorded on a Victor 5 plate reader. Data were analyzed in GraphPad Prism 9 and error bars represent standard deviation values for three technical replicates in a representative experiment.

[3] = HT1080 + Fer-1, read-out: IC50 (uM) HT1080 + Fer-1
[4] = HT1080, without Fer-1, read-out: IC50 (uM) HT1080
[5] = with Fer-1, Table 10, read-out: IC50 (μM) HT1080 + Fer-1
[6] = without Fer-1, Table 10, read-out: IC50 (μM) HT1080

| SMILES | Selectivity ([2]; IC50 with Fer-1 / IC50) | IC50 [2, 5] [µM] | IC50 [2, 6] [µM] | also measured |
| --- | --- | --- | --- | --- |
| COc1ccc(-c2ccc3c(C(=O)NC(C)(C)C(C)OC(=O)CCl)nn(C)c3c2)cc1Cl (racemic) [QW-736] | – | – | – | GPX4% inhibition at 2.5 μM ([1]; 2.5 μM): 95.3 ± 7.6%; IC50 [2, 3]: 7.3 µM; IC50 [2, 4]: 3.7 µM; Selectivity ([2]; HT1080 + Fer-1 vs HT1080): 2.0 |
| Cn1nc(C(=O)NC(C)(C)COC(=O)CCl)c2ccc(-c3cc4ccccc4s3)cc21 [QW-470] | – | – | – | GPX4% inhibition at 5 μM ([1]; 5 μM): 75.0 ± 5.6%; IC50 [2, 3]: 17.3 µM; IC50 [2, 4]: 1.7 µM; Selectivity ([2]; HT1080 + Fer-1 vs HT1080): 10.2 |
| CCOCCOc1ccc(-c2ccc3c(C(=O)NC(C)(C)COC(=O)CCl)nn(C)c3c2)cc1 [QW-605] | – | – | – | GPX4% inhibition at 2.5 μM ([1]; 2.5 μM): 60.9 ± 15.7%; IC50 [2, 3]: 17.5 µM; IC50 [2, 4]: 1.9 µM; Selectivity ([2]; HT1080 + Fer-1 vs HT1080): 9.2 |
| Cn1nc(-n2cc(C(C)(C)COC(=O)CCl)nn2)c2ccc(-c3ccc(OC(F)(F)F)c(Cl)c3)cc21 [QW-677] | – | – | – | GPX4% inhibition at 2.5 μM ([1]; 2.5 μM): 33.6 ± 6.3%; IC50 [2, 3]: 14 µM; IC50 [2, 4]: 1.65 µM; Selectivity ([2]; HT1080 + Fer-1 vs HT1080): 8.5 |
| Cn1nc(-c2nnc(C(C)(OC(=O)CCl)C(F)(F)F)o2)c2ccc(-c3ccc4c(c3)OCO4)cc21 (stereo not drawn) [QW-695] | – | – | – | GPX4% inhibition at 2.5 μM ([1]; 2.5 μM): −49.5 ± 28.5%; IC50 [2, 3]: 14.4 µM; IC50 [2, 4]: 9.4 µM; Selectivity ([2]; HT1080 + Fer-1 vs HT1080): 1.5 |
| Cn1nc(-n2cc(C(C)(C)COC(=O)CCl)nn2)c2ccc(-c3ccc4c(c3)OCO4)cc21 [QW-696] | – | – | – | GPX4% inhibition at 2.5 μM ([1]; 2.5 μM): 22.3 ± 37.1%; IC50 [2, 3]: 8.8 µM; IC50 [2, 4]: 2.9 µM; Selectivity ([2]; HT1080 + Fer-1 vs HT1080): 3.0 |
| COc1c(Cl)cc(-c2ccc3c(C(=O)NC(C)(C)COC(=O)CCl)nn(C)c3c2)cc1Cl [QW-711] | – | – | – | GPX4 inhibitory activity, result in words [1]: further increase the inhibitory activity; GPX4% inhibition at 2.5 μM ([1]; 2.5 μM): 98.4 ± 17.6%; IC50 [2, 3]: 31.7 µM; IC50 [2, 4]: 1.4 µM; ferroptosis induction / potency in HT-1080 cells, result in words [2]: less potent compared to RSL3; Selectivity ([2]; HT1080 + Fer-1 vs HT1080): 22.6 |
| COc1c(Cl)cc(-c2ccc3c(-n4cc(C(C)(C)COC(=O)CCl)nn4)nn(C)c3c2)cc1Cl [QW-712] | – | – | – | GPX4% inhibition at 2.5 μM ([1]; 2.5 μM): 68.5 ± 9.4%; IC50 [2, 3]: 28.4 µM; IC50 [2, 4]: 1.9 µM; ferroptosis induction / potency in HT-1080 cells, result in words [2]: less potent compared to RSL3; Selectivity ([2]; HT1080 + Fer-1 vs HT1080): 14.9 |
| Cn1nc(C(=O)NC(C)(C)COC(=O)CCl)c2ccc(-c3ccc(OC(C)(C)C)cc3)cc21 [QW-715] | – | – | – | GPX4% inhibition at 2.5 μM ([1]; 2.5 μM): 95.3 ± 7.6%; GPX4 inhibition ([1]; 2.5 μM): completely inhibited GPX4; IC50 [2, 3]: 24.1 µM; IC50 [2, 4]: 2.6 µM; ferroptosis induction / potency in HT-1080 cells, result in words [2]: more potent compared to RSL3; Selectivity ([2]; HT1080 + Fer-1 vs HT1080): 9.3 |
| CC(C)Oc1ncc(-c2ccc3c(C(=O)NC(C)(C)COC(=O)CCl)nn(C)c3c2)cn1 [QW-716] | – | – | – | GPX4 inhibitory activity, result in words [1]: substantially higher GPX4 inhibitory activities than QW-446; GPX4% inhibition at 2.5 μM ([1]; 2.5 μM): 86.4 ± 7.3%; IC50 [2, 3]: 63 µM; IC50 [2, 4]: 1.6 µM; ferroptosis induction / potency in HT-1080 cells, result in words [2]: more potent compared to RSL3; Selectivity ([2]; HT1080 + Fer-1 vs HT1080): 39.4 |
| CC(C)(COC(=O)CCl)NC(=O)c1c2ccc(-c3ccc(N4CCOCC4)c(Cl)c3)cc2nn1Cc1cc(C(F)(F)F)cc(C(F)(F)F)c1 [QW-945] | 4.0 | 10.7 | 2.7 | – |
| COc1ccc(-c2ccc3c(C(=O)NC(C)(C)COC(=O)CCl)nn(Cc4cc(Cl)ccc4Cl)c3c2)cc1Cl [QW-946] | 133.4 | 454 | 3.4 | – |
| CC(C)(COC(=O)CCl)NC(=O)c1nn(Cc2cc(Cl)cc(Cl)c2)c2cc(Br)ccc12 [QW-954] | 2.0 | 11.8 | 5.9 | – |
| COc1ccc(-c2ccc3c(C(=O)NC(C)(C)COC(=O)CCl)nn(Cc4cccc(Cl)c4Cl)c3c2)cc1Cl [QW-958] | 13.7 | 31.6 | 2.3 | – |
| CC(C)(COC(=O)CCl)NC(=O)c1nn(Cc2cccc(Cl)c2Cl)c2cc(-c3ccc(N4CCOCC4)c(Cl)c3)ccc12 [QW-959] | 508.5 | 610 | 1.2 | – |
| CC(C)(COC(=O)CCl)NC(=O)c1nn(Cc2ccc(Cl)c(Cl)c2)c2cc(-c3ccc(N4CCOCC4)c(Cl)c3)ccc12 [QW-968] | – | > 40 | > 40 | – |
| COc1ccc(-c2ccc3c(C(=O)NC(C)(C)COC(=O)CCl)n(Cc4ccc(Cl)c(Cl)c4)nc3c2)cc1Cl [QW-972] | 1.5 | 5.5 | 3.6 | – |
| CC(C)(COC(=O)CCl)NC(=O)c1c2ccc(-c3ccc(N4CCOCC4)c(Cl)c3)cc2nn1Cc1ccc(Cl)c(Cl)c1 [QW-973] | 1.4 | 5.8 | 4.2 | – |

| SMILES | Selectivity ([2]; IC50 with Fer-1 / IC50) | IC50 [2, 5] [µM] | IC50 [2, 6] [µM] | also measured |
| --- | --- | --- | --- | --- |
| COc1ccc(-c2ccc3c(c2)c(C(=O)NC(C)(C)COC(=O)CCl)nn3Cc2cc(Cl)cc(Cl)c2)cc1Cl [QW-979] | 1.8 | 12.5 | 6.9 | – |
| CC(C)(COC(=O)CCl)NC(=O)c1nn(Cc2cc(Cl)cc(Cl)c2)c2ccc(-c3ccc(N4CCOCC4)c(Cl)c3)cc12 [QW-980] | 1.5 | 8.4 | 5.5 | – |
| CCOc1ccc(-c2ccc3c(C(=O)NC(C)(C)COC(=O)CCl)nn(Cc4cc(Cl)cc(Cl)c4)c3c2)cc1Cl [QW-983] | 8.7 | 19.2 | 2.2 | – |
| CSc1ccc(-c2ccc3c(C(=O)NC(C)(C)COC(=O)CCl)nn(Cc4cc(Cl)cc(Cl)c4)c3c2)cc1Cl [QW-984] | >53 | > 40 | 0.75 | – |
| CCCOc1ccc(-c2ccc3c(C(=O)NC(C)(C)COC(=O)CCl)nn(Cc4cc(Cl)cc(Cl)c4)c3c2)cc1Cl [QW-987] | >55 | > 40 | 0.72 | – |
| CC(C)(COC(=O)CCl)NC(=O)c1nn(Cc2cc(Cl)cc(Cl)c2)c2cc(-c3ccc(N4CCOCC4)cc3)ccc12 [QW-988] | 6.7 | 19.5 | 2.9 | – |
| CC(C)(COC(=O)CCl)NC(=O)c1nn(Cc2cc(Cl)cc(Cl)c2)c2cc(-c3ccc(OC(F)(F)F)c(Cl)c3)ccc12 [QW-991] | 32.0 | 21.1 | 0.66 | – |
| COC(=O)c1ccc(-c2ccc3c(C(=O)NC(C)(C)COC(=O)CCl)nn(Cc4cc(Cl)cc(Cl)c4)c3c2)cc1Cl [QW-992] | 7.5 | 23.3 | 3.1 | – |
| CC(C)(COC(=O)CCl)NC(=O)c1nn(Cc2cc(Cl)cc(Cl)c2)c2cc(-c3ccc(C(F)(F)F)c(Cl)c3)ccc12 [QW-995] | 1.1 | 47.1 | 42.3 | – |
| CC(C)Oc1c(Cl)cc(-c2ccc3c(C(=O)NC(C)(C)COC(=O)CCl)nn(Cc4cc(Cl)cc(Cl)c4)c3c2)cc1Cl [QW-996] | 17.8 | 12.8 | 0.72 | – |
| COc1c(Cl)cc(-c2ccc3c(C(=O)NC(C)(C)COC(=O)CCl)nn(Cc4cc(Cl)cc(Cl)c4)c3c2)cc1Cl [QW-998] | >114.3 | > 40 | 0.35 | – |
| CC(=O)OCC(C)(C)NC(=O)c1nn(Cc2cc(Cl)cc(Cl)c2)c2cc(-c3ccc(N4CCOCC4)c(Cl)c3)ccc12 [QW-999] | – | > 40 | > 40 | ferroptosis induction / potency in HT-1080 cells, result in words [2]: inactive in cellular assay |
| CC(C)(COC(=O)C(Cl)Cl)NC(=O)c1nn(Cc2cc(Cl)cc(Cl)c2)c2cc(-c3ccc(N4CCOCC4)c(Cl)c3)ccc12 [QW-1000] | – | > 40 | > 40 | – |
| COC(=O)/C=C/C(=O)OCC(C)(C)NC(=O)c1nn(Cc2cc(Cl)cc(Cl)c2)c2cc(-c3ccc(N4CCOCC4)c(Cl)c3)ccc12 [QW-1001] | – | > 40 | > 40 | – |
| CC=CC(=O)OCC(C)(C)NC(=O)c1nn(Cc2cc(Cl)cc(Cl)c2)c2cc(-c3ccc(N4CCOCC4)c(Cl)c3)ccc12 [QW-1002] | – | > 40 | > 40 | – |
| CC(C)(COC(=O)CBr)NC(=O)c1nn(Cc2cc(Cl)cc(Cl)c2)c2cc(-c3ccc(N4CCOCC4)c(Cl)c3)ccc12 [QW-1004] | 2.3 | 8.9 | 3.8 | – |
| CC(C)(COC(=O)c1ccc(S(C)(=O)=O)c([N+](=O)[O-])c1)NC(=O)c1nn(Cc2cc(Cl)cc(Cl)c2)c2cc(-c3ccc(N4CCOCC4)c(Cl)c3)ccc12 [QW-1006] | – | > 40 | > 40 | – |
